Read-outs that look alike come from different tables or passages of the source.
Columns and labels:
human DAT = molecular target: T1, human DAT (Homo sapiens, UniProt Q01959); assay: Uptake inhibition assay, DAT; format: cell-based; conditions: HEK293 cells expressing human DAT, 0.05 µM [3H]MPP+; for IC50: given as a range
T1 construct: expressed in transfected cells

human NET = molecular target: T2, human NET (Homo sapiens, UniProt P23975); assay: cell-based; format: cell-based
T2 construct: expressed in transfected cells
T2 sequence (P23975 whole entry): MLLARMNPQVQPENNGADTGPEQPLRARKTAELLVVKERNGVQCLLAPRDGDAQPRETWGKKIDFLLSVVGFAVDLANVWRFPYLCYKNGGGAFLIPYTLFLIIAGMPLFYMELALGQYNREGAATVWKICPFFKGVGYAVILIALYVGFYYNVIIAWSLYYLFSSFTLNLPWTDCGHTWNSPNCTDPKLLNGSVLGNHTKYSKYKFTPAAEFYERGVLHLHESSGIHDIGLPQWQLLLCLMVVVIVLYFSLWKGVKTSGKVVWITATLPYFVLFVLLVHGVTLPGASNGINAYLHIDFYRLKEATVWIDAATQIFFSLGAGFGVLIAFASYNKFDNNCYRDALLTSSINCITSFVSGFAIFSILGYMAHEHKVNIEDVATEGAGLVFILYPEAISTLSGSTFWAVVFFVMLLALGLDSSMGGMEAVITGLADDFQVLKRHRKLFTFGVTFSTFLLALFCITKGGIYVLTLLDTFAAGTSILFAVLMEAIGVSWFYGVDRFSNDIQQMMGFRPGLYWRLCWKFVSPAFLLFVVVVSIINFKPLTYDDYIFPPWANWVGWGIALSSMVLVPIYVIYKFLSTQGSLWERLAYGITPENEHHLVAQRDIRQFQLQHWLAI

human OCT1 [1] = molecular target: T3, human OCT1 (Homo sapiens, UniProt O15245); assay: cell-based
T3 sequence (O15245 1-554): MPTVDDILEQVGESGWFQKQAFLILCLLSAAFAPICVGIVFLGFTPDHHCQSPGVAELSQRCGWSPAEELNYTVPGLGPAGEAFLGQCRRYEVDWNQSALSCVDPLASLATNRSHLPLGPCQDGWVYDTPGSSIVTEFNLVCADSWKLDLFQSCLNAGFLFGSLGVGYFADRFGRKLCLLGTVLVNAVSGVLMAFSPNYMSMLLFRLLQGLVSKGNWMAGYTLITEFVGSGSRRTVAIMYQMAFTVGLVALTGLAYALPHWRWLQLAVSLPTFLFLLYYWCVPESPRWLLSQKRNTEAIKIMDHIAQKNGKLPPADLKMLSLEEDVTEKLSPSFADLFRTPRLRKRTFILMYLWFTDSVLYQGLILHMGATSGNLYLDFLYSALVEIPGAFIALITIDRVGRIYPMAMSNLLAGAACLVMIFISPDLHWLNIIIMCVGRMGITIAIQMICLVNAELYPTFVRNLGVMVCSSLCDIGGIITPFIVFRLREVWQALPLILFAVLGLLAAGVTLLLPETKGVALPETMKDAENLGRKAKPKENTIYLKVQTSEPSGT
Protocol: (§1) Cells were cultured in Dulbecco’s modified Eagle’s medium (DMEM) supplemented with 10% fetal bovine serum and 250 μg/mL geneticin to maintain selection pressure.
(§2) HEK293 cells heterologously expressing the respective transporters were seeded onto poly-D-lysine (PDL)-coated 96-well plates at a density of ∼36,000 cells per well, 1 day before experiments. For the experiment, medium was replaced with 200 µL Krebs HEPES buffer (KHB; 120 mM NaCl, 3 mM KCl, 2 mM CaCl2·2H2O, 2 mM MgCl2·6H2O, 20 mM D-glucose, pH 7.3). Test compounds were dissolved in Milli-Q water or dimethyl sulfoxide (DMSO) at 10–100 mM stock concentrations. Cells were preincubated for 5 min with the compound of interest (diluted in KHB to the indicated concentrations). The preincubation solution was then replaced with 50 µL/well of diluted compound together with tritiated substrate (DAT, OCT1, OCT2, OCT3: 0.05 μM [^3H]MPP^+; NET: 0.02 μM [^3H]MPP^+; SERT: 0.1 μM [^3H]5-HT) for 1 min (SERT) or 3 min (DAT, NET, OCT1– OCT3). After the incubation, uptake was terminated by rapidly washing cell with 200 μL KHB, followed by addition of 200 μL Ultima Gold™ XR scintillation cocktail (PerkinElmer, MA, United States) to each well. […] Uptake in the absence of inhibitor was defined as 100%, while uptake in presence of a reference inhibitor (hDAT, hNET: 50 μM GBR12909; hSERT: 3 μM paroxetine; OCT1–OCT3: 100 µM D22) was defined as nonspecific uptake (0%) and subtracted from all values.
(§3) Uptake is expressed as a percentage of control (uptake in the absence of test compound). Data represent mean ± SD of ≥3 independent experiments.

human OCT2 [2] = molecular target: T4, human OCT2 (Homo sapiens, UniProt O15244); assay: cell-based
T4 sequence (O15244 1-555): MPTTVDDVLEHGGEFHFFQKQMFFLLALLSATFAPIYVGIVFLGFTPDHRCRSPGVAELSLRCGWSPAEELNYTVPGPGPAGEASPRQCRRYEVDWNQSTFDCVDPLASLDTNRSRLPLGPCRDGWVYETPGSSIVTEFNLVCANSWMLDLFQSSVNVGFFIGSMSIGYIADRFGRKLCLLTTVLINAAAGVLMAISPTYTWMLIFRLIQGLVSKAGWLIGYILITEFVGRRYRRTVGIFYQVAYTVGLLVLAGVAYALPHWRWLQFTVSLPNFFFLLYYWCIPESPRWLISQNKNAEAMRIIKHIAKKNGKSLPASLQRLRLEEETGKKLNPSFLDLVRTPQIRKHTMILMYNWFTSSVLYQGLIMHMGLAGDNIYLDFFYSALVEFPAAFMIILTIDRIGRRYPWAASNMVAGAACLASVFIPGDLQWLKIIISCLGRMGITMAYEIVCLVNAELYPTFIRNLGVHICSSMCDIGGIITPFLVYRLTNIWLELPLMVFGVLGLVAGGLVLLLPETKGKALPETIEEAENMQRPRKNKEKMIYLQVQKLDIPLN
Protocol: as §1, §2, §3

human OCT3 [3] = molecular target: T5, human OCT3 (Homo sapiens, UniProt O75751); assay: Uptake inhibition assay, OCT3; format: cell-based; conditions: HEK293 cells expressing human OCT3, 0.05 µM [3H]MPP+
T5 construct: expressed in transfected cells
T5 sequence (O75751 1-556): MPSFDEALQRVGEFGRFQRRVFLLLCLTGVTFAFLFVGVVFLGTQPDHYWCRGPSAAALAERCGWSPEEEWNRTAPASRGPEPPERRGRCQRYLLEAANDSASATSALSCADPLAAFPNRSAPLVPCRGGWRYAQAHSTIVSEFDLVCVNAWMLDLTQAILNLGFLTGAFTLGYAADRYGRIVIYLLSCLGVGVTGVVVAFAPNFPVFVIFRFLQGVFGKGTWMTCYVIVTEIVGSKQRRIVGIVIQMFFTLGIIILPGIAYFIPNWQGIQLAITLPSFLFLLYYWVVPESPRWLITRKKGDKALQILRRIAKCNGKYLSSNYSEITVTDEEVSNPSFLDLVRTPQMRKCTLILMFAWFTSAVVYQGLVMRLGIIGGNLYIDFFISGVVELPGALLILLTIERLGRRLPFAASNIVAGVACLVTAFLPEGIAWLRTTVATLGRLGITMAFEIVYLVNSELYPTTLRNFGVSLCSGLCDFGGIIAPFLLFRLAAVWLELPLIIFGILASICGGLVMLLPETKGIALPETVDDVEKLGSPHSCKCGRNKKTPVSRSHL
Protocol: as §1, §2, §3

human OCT3 [4] = molecular target: T5, human OCT3; set-up: method as in Angenoorth et al., 2021; conditions: ref Angenoorth et al., 2021; cited from earlier work
human OCT1 [5] = molecular target: T3, human OCT1; set-up: expressed in transfected cells; method as in Angenoorth et al., 2021; conditions: ref Angenoorth et al., 2021; cited from earlier work
human OCT2 [6] = molecular target: T4, human OCT2; set-up: expressed in transfected cells; method as in Angenoorth et al., 2021; conditions: ref Angenoorth et al., 2021; cited from earlier work
[7] = HEK293 cells expressing human NET, 0.02 µM [3H]MPP+
[8] = HEK293 cells expressing human NET, 0.02 µM [3H]MPP+, given as a range, read-out: IC50 of NET uptake inhibition

T1 sequence (Q01959 whole entry): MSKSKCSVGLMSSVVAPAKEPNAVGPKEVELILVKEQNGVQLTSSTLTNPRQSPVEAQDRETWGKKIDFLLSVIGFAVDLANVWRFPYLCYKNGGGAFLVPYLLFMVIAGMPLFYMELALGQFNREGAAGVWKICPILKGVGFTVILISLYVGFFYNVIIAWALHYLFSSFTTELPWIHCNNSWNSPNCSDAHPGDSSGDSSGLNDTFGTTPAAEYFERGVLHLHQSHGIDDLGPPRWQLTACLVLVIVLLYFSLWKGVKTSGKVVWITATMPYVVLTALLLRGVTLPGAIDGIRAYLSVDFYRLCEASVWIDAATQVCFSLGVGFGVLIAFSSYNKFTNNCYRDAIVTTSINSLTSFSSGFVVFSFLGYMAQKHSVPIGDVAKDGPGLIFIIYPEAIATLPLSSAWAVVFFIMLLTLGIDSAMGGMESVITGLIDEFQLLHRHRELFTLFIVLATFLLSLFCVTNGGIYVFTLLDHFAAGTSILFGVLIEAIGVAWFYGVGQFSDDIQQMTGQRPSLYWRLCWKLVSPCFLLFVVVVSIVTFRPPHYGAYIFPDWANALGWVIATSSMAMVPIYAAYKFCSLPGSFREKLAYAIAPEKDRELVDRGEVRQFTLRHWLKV

CCN(CC)CC(=O)Nc1c(C)cccc1C [lidocaine]
Inhibitory activity at DAT (in words) (human DAT): no inhibitory potency
Inhibitory activity at NET (in words) (human NET; [7]): no inhibitory potency

c1ccc([C@H]2CN3CCSC3=N2)cc1 [levamisole]
IC50 (human DAT): 81 to 316 µM
IC50 (human NET): 60 to 106 µM

CCOc1ccc(NC(C)=O)cc1 [phenacetin]
Inhibitory activity at DAT (in words) (human DAT): no measurable inhibitory activity
Inhibitory activity at NET (in words) (human NET; [7]): no measurable inhibitory activity

CC(=O)Nc1ccc(O)cc1 [paracetamol]
Inhibitory activity at DAT (in words) (human DAT): no measurable inhibitory activity
Inhibitory activity at NET (in words) (human NET; [7]): no measurable inhibitory activity

CCN(CC)CCOC(=O)c1ccc(N)cc1 [procaine]
IC50 (human DAT): 15 to 29 µM
IC50 (human NET; [8]): 88 to 146 µM
IC50 (human OCT1 [1]): 5 to 9 µM
IC50 (human OCT2 [2]): 10 to 24 µM
Inhibition of OCT3-mediated transport (in words) (human OCT3 [3]): none of the compounds—cocaine, procaine, or lidocaine—substantially inhibited OCT3-mediated transport except at near-millimolar concentrations

COC(=O)[C@H]1[C@@H](OC(=O)c2ccccc2)C[C@@H]2CC[C@H]1N2C [cocaine]
IC50 (human OCT1 [1]): 19 to 57 µM
IC50 (human OCT2 [2]): 15 to 42 µM
Inhibition of OCT3-mediated transport (in words) (human OCT3 [3]): none of the compounds—cocaine, procaine, or lidocaine—substantially inhibited OCT3-mediated transport except at near-millimolar concentrations
Inhibition of OCT3 (in words), previously reported (human OCT3 [4]): but not OCT3
Inhibition of OCT1 (in words), previously reported (human OCT1 [5]): inhibits OCT1 and OCT2
Inhibition of OCT2 (in words), previously reported (human OCT2 [6]): inhibits OCT1 and OCT2

CCOC(=O)c1ccc(N)cc1 [benzocaine, Ethyl 4-Aminobenzoate]
IC50 (human DAT): 17 to 27 µM
IC50 (human NET; [8]): 215 to 444 µM
Inhibition of [3H]MPP+ transport via OCT1 (in words) (human OCT1 [1]; HEK293 cells expressing human OCT1, 0.05 µM [3H]MPP+): failed to inhibit
Inhibition of [3H]MPP+ transport via OCT2 (in words) (human OCT2 [2]; HEK293 cells expressing human OCT2, 0.05 µM [3H]MPP+): failed to inhibit
Inhibition of OCT3-mediated transport (in words) (human OCT3 [3]): failed to inhibit

Reference: paper PMC12672436 (Frontiers in Pharmacology, 2025)
